Reference: PubChem BioAssay (NCI)
“And” between values parts separate entries of the source, which are not always exact repeats. Identical values can stand only once.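 Test compounds were applied to cells in 96-well plates for 48 hours at 5 doses. GI50 = concentration required for 50% inhibition of growth. TGI: concentration producing complete growth inhibition.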

Tests used:
Assay in all cases: growth of human tumour cells (NCI), 48 h
DLD-1 colon = tested on: DLD-1 colon
HCT-116 colon = tested on: HCT-116 colon
K-562 leukemia = tested on: K-562 leukemia
M19-MEL melanoma = tested on: M19-MEL melanoma
NCI-H460 lung = tested on: NCI-H460 lung
SF-268 CNS = tested on: SF-268 CNS
SF-295 CNS = tested on: SF-295 CNS
SF-539 CNS = tested on: SF-539 CNS
SN12C renal = tested on: SN12C renal
UACC-257 melanoma = tested on: UACC-257 melanoma

SMILES	TGI (DLD-1 colon)	TGI (HCT-116 colon)	TGI (K-562 leukemia)	TGI (M19-MEL melanoma)	TGI (NCI-H460 lung)	TGI (SF-268 CNS)	TGI (SF-295 CNS)	TGI (SF-539 CNS)	TGI (SN12C renal)	TGI (UACC-257 melanoma)	GI50 (DLD-1 colon)	GI50 (K-562 leukemia)	GI50 (M19-MEL melanoma)	GI50 (SF-295 CNS)	GI50 (SF-539 CNS)	GI50 (SN12C renal)	GI50 (UACC-257 melanoma)
O=c1cc(-c2ccccc2)[nH]c2c(F)ccc(F)c12	> 100 µM	> 100 µM	> 100 µM	> 100 µM	> 100 µM	> 100 µM	> 100 µM	> 100 µM	> 100 µM	> 100 µM	–	–	–	–	–	–	–
COc1cccc2c1C(=O)c1c(O)c3c(c(O)c1C2=O)C[C@@](O)(C(=O)CO)CC3OC1CC(NCCCCC(OC(C)=O)OC(C)=O)C(O)C(C)O1 (stereo partly specified)	0.245 µM	–	0.00466 µM	0.00334 µM	0.319 µM	–	0.0335 µM	0.00421 µM and 0.0374 µM	> 1 µM	0.00798 µM	0.00247 µM	0.000522 µM	0.00156 µM	0.00227 µM	0.00296 µM	0.000935 µM	0.00286 µM
CCC(C)Cn1c(C)nc2c1C(=O)c1ccccc1C2=O (stereo unspecified)	> 100 µM	–	> 100 µM	33.9 µM	34.3 µM	> 100 µM	> 100 µM	59.5 µM	> 100 µM	62.3 µM	–	–	–	–	–	–	–
CN(C)CCSc1nccc(-c2ccc(-c3ccnc(SCCN(C)C)n3)s2)n1	23 µM	13.1 µM	23.2 µM	26.6 µM	9.86 µM	22 µM	26 µM	20.4 µM	21 µM	31.1 µM	–	–	–	–	–	–	–
Cn1c(-c2cccs2)cc(-c2ccsc2)c1-c1ccsc1	–	> 100 µM	> 100 µM	–	> 100 µM	> 100 µM	> 100 µM	> 100 µM	> 100 µM	> 100 µM	–	–	–	–	–	–	–
COc1ccc(C2CCc3c(cnc4nc(N)nc(N)c34)C2)cc1 (stereo unspecified)	–	> 100 µM	> 100 µM	–	> 100 µM	> 100 µM	> 100 µM	> 100 µM	> 100 µM	> 100 µM	–	–	–	–	–	–	–
CC1[C@@H]2C[C@@H]3O[C@@]34[C@H]3CCC5Cc6nc7c(nc6C[C@@]5(C)C3(O)CC(=O)[C@@]24CO[C@]12OC(C)(C)CC2O)CC1CC[C@@H]2C3=C[C@H]4O[C@@]5(O[C@@](C)(CO)C[C@@H]5O)C(C)[C@@]4(O)[C@]3(C)[C@@H](O)CC2[C@]1(C)C7 (stereo partly specified)	> 3.52 µM	> 3.52 µM	0.666 µM	> 3.52 µM	0.479 µM	0.683 µM	0.0164 µM	0.115 µM	> 3.52 µM	> 3.52 µM	–	–	–	–	–	–	–
Cc1cccc2c1C(=O)/C(=C/c1ccccc1C(=O)O)C2	–	> 100 µM	> 100 µM	–	> 100 µM	> 100 µM	> 100 µM	> 100 µM	> 100 µM	> 100 µM	–	–	–	–	–	–	–
NC(=O)c1ccc(S(=O)(=NS(=O)(=O)c2ccccc2)c2ccc(C(N)=O)cc2)cc1	–	> 100 µM	> 100 µM	–	> 100 µM	> 100 µM	> 100 µM	> 100 µM	> 100 µM	> 100 µM	–	–	–	–	–	–	–
COc1nc2ncc([C@@H](O)[C@H](O)CO)nc2c(=O)[nH]1	–	> 100 µM	> 100 µM	–	> 100 µM	> 100 µM	> 100 µM	> 100 µM	> 100 µM	> 100 µM	–	–	–	–	–	–	–
COc1ccc2c(-c3csc(-c4c[nH]c5ccccc45)n3)c[nH]c2c1	–	19 µM	> 22.1 µM	–	13.7 µM	26 µM	35.2 µM	65.5 µM	35.9 µM	> 90.6 µM	–	–	–	–	–	–	–
CC1C/C(=C\c2ccc(O)c(O)c2)C(=O)/C(=C/c2ccc(O)c(O)c2)C1 (stereo unspecified)	–	20 µM	27.4 µM	–	32.2 µM	32.1 µM	27.7 µM	13 µM	20.4 µM	28.7 µM	–	–	–	–	–	–	–
CC(=O)c1nc(C#N)c(N)o1	–	> 100 µM	> 100 µM	–	> 100 µM	> 100 µM	> 100 µM	> 100 µM	> 100 µM	> 100 µM	–	–	–	–	–	–	–
Cc1cc(C)c(N)c(CO)c1	–	> 100 µM	> 100 µM	–	> 100 µM	> 100 µM	> 100 µM	> 100 µM	> 100 µM	> 100 µM	–	–	–	–	–	–	–
Clc1ccc(C2=NNC(c3cccc(Cl)c3)C2)cc1 (stereo unspecified)	–	> 100 µM	> 100 µM	–	> 100 µM	> 100 µM	92.6 µM	> 100 µM	53.2 µM	> 100 µM	–	–	–	–	–	–	–
CCOC(=O)C1=C(C)N(c2ccc(Cl)cc2)C2(O)C=CC(=O)C3C(=O)N(c4ccccc4)C(=O)C132 (stereo unspecified)	–	3.14 µM	9.03 µM	–	4.97 µM	4.54 µM	5.25 µM	9.4 µM	5.28 µM	6.76 µM	–	–	–	–	–	–	–
Nc1nn2cc(-c3ccccc3)[n+](CC(=O)c3ccccc3)c2s1	–	30.3 µM	66.7 µM	–	> 100 µM	50.6 µM	> 100 µM	42.3 µM	> 100 µM	70.5 µM	–	–	–	–	–	–	–
Cc1cccc(-c2cc(=O)c3cc(C)cnc3[nH]2)c1	–	11.4 µM	> 33.3 µM	–	13.1 µM	> 100 µM	0.609 µM	2.62 µM	> 94.6 µM	> 100 µM	–	–	–	–	–	–	–
C[S+](C)C1(c2ccccc2)C(=O)c2ccccc2C1=O	> 100 µM	> 100 µM	> 100 µM	> 100 µM	> 100 µM	> 100 µM	99.2 µM	> 68.1 µM	> 100 µM	> 100 µM	–	–	–	–	–	–	–
CO/C=C(/C(=O)OC)c1ccccc1[C@H]1C[C@@H]1c1ccccc1	–	62.5 µM	> 100 µM	–	88.6 µM	82.5 µM	98.2 µM	42.7 µM	90.3 µM	41.3 µM	–	–	–	–	–	–	–
O=C1CCc2c(sc3ncnc(Nc4cccc(Br)c4)c23)C1	–	11.7 µM	> 22.7 µM	–	12.9 µM	15.2 µM	15.3 µM	13.2 µM	12.7 µM	11.6 µM	–	–	–	–	–	–	–
CSC(=N/N=C(\C)c1ccc(S(=O)(=O)N(C)c2ccccc2)cc1)SC	–	> 100 µM	> 100 µM	–	> 100 µM	> 100 µM	> 100 µM	> 100 µM	> 100 µM	> 100 µM	–	–	–	–	–	–	–
S=C1NNC(=S)NN1	–	> 1 µM	0.478 µM	–	> 1 µM	> 1 µM	0.486 µM	> 1 µM	0.354 µM	> 1 µM	–	–	–	–	–	–	–
CC(=O)N1C(=O)/C(=C\C(=O)c2ccc(Cl)cc2)c2ccccc21	–	32.3 µM	> 100 µM	–	32.5 µM	40.5 µM	52.7 µM	37.2 µM	32.1 µM	30.7 µM	–	–	–	–	–	–	–
Cc1cnc2[nH]c(-c3sccc3C)cc(=O)c2c1	–	> 100 µM	> 100 µM	–	> 100 µM	> 100 µM	> 100 µM	> 91.6 µM	> 100 µM	> 100 µM	–	–	–	–	–	–	–
c1ccc(C2C3=C(CCCC3)Nc3nnnn32)cc1 (stereo unspecified)	–	> 100 µM	> 100 µM	–	> 100 µM	90.8 µM	> 100 µM	> 100 µM	> 100 µM	> 100 µM	–	–	–	–	–	–	–
CC(C)c1cc(C(C)C)c(B(c2ccccc2)c2ccccc2)c(C(C)C)c1Br	–	> 100 µM	> 100 µM	–	> 100 µM	> 100 µM	> 100 µM	> 100 µM	> 100 µM	> 100 µM	–	–	–	–	–	–	–
O=C1CSC2=NC3=C(COC/C3=C\c3ccc(F)cc3)C(c3ccc(F)cc3)N12 (stereo unspecified)	–	> 100 µM	> 100 µM	–	> 100 µM	> 100 µM	> 100 µM	> 100 µM	> 100 µM	> 100 µM	–	–	–	–	–	–	–
CC(=O)c1c2c(cc3c1CCC3)CCC2	–	> 100 µM	> 100 µM	–	> 100 µM	> 100 µM	> 100 µM	> 100 µM	> 100 µM	> 100 µM	–	–	–	–	–	–	–
O=C1/C(=C/Cc2ccco2)N=C(c2ccccc2)N1c1nc2c(Cl)cc(Cl)cc2s1	–	81.2 µM	> 100 µM	–	> 100 µM	89.2 µM	> 100 µM	61.3 µM	> 100 µM	> 100 µM	–	–	–	–	–	–	–
